Measurements: US20030091620A1, “Transdermal drug delivery systems containing quaternary ammonium salts and methods of using the same” (priority 1999, published 2003)
Where two headings read alike, the source gives them in different places.

Key:
[1] = test system: bacterial count on the skin; conditions: cited from earlier work
[2] = test system: E3 organism; assay: Zone of Inhibition testing of antimicrobial-loaded transdermal matrix disks; format: cell-based, gram-positive, coagulase-negative cocci
Description: These patches were cut into 1 cm^2 disks and subjected to Zone of Inhibition testing against the E3 organism with 24-hour incubation.
In the next experiment, placebo matrix patches (18 cm^2 area) were manufactured for a clinical wear study.

[3] = test system: E3 organism; assay: Zone of Inhibition testing of paper discs saturated with aqueous antimicrobial solutions; format: cell-based, gram-positive, coagulase-negative cocci
Description: In this experiment, the effectiveness of various topical antimicrobial agents against the E3 organism was determined using Zone of Inhibition testing of paper discs saturated with aqueous antimicrobial solutions.

[4] = In vitro skin flux from PSA matrix patches and hydroalcoholic gels (modified Franz diffusion cells); conditions: 24-hour skin flux of the drug from Morstick 214 PSA patch with 1% BzthCl, relative to 0% enhancer
Description: In vitro skin flux studies were conducted on epidermal membranes (stratum corneum and epidermis) obtained from whole human cadaver skin (epidermal membrane and dermis) by the heat-separation method of Kligman & Christopher, 88 Arch. […] This method consists of immersion of the whole skin for 60 seconds in water at 60° C., followed by mechanical separation of the epidermal and dermal layers. After separation, the epidermal membrane is stored in aluminum foil at −5° C. until use.
Skin flux experiments were conducted in two-compartment glass diffusion cells with a modified Franz design. The receiver compartment was filled with water or an aqueous buffer appropriate to maintain sink conditions for the drug. All receiver media included 0.02% (w/w) sodium azide to inhibit bacterial growth. […]
At predetermined sampling intervals, the entire volume of the receiver compartment solution was collected for drug quantification, and the receiver compartment was filled with fresh receiver solution, taking care to eliminate any air bubbles at the skin/solution interface.
Receiver solution samples were analyzed for drug content by HPLC with external standards of known drug concentration used for calibration. The cumulative amount of drug permeated per unit area at any time t (Qt, μg/cm^2) was determined according to the following equation: [formula] […]

[5] = in vivo; cited from earlier work
[6] = aqueous solution 2.0% w/w on 0.33 cm^2 paper disks, read-out: Zone of Inhibition

Compound	time required for the bacterial count on the skin to be decreased by 50% [1]	time required to effect a 90% reduction of bacterial count [1]	zone of inhibition at 2 % strength [3, 6]	other results
CCO [70% ethanol, ethanol]	36 s	2 min		
O=C(O)c1ccccc1 [Benzoic Acid]				zone of inhibition at 0.4 % strength ([2]; 24 h): < 0 mm; zone of inhibition at 2 % strength [3]: 10 mm
OCc1ccccc1 [Benzyl Alcohol]			10 mm	
Cl.O=C1CC2(CCCC2)CC(=O)N1CCCCN1CCN(c2ncccn2)CC1 [Buspirone HCI]				% Increase in Q24 [4]: 38 (21%)
COC(=O)c1ccc(O)cc1 [Methyl Paraben]			0 mm	
benzalkonium chloride	420 s	25 min		skin irritation [5]: severe irritation; Zone of Inhibition ([2]; 0.4% w/w in DuroTak 87-2888 adhesive matrix disks, 24-hour incubation): 15 mm; Zone of Inhibition ([3]; aqueous solution 0.4% w/w on 0.33 cm^2 paper disks): 13 mm
